# Assay results reported in ChEMBL document CHEMBL1146675, “Kringle 5 peptide-albumin conjugates with anti-migratory activity” (Bioorg Med Chem Lett, 2004).
# Peptide text beside a SMILES is read from it. * marks the point of attachment. Propanoyl(3-maleimido) = O=C1C=CC(=O)N1CCC(=O)*
# Species on record: Homo sapiens
# Test: Percent of unbound maleimide to human serum albumin
# Type: functional
row,SMILES,Activity [%]
1,CC(C)C[C@H](NC(=O)[C@H](CCCCN)NC(=O)[C@H](CCCN=C(N)N)NC(=O)[C@@H]1CCCN1C(=O)CCN1C(=O)C=CC1=O)C(=O)N[C@@H](Cc1ccc(O)cc1)C(=O)N[C@@H](CC(=O)O)C(=O)N[C@@H](Cc1ccc(O)cc1)C(N)=O ({Propanoyl(3-maleimido)}-PRKLYDY-NH2),1.1
2,CC(C)C[C@H](NC(=O)[C@H](CCCCN)NC(=O)[C@H](CCCN=C(N)N)NC(=O)[C@@H]1CCCN1C(=O)[C@H](CC(N)=O)NC(=O)[C@@H](NC(=O)[C@@H](NC(=O)[C@H](Cc1ccc(O)cc1)NC(=O)[C@H](C)NC(=O)[C@H](Cc1c[nH]c2ccccc12)NC(=O)[C@@H]1CCCN1C(=O)CNC(=O)CNC(=O)[C@@H](NC(=O)[C@H](CC(=O)O)NC(=O)CNC(=O)[C@H](CC(=O)O)NC(=O)[C@@H]1CCCN1C(=O)[C@H](CC(N)=O)NC(=O)[C@H](CCCN=C(N)N)NC(=O)CCN1C(=O)C=CC1=O)C(C)C)[C@@H](C)O)[C@@H](C)O)C(=O)N[C@@H](Cc1ccc(O)cc1)C(=O)N[C@@H](CC(=O)O)C(=O)N[C@@H](Cc1ccc(O)cc1)C(N)=O ({Propanoyl(3-maleimido)}-RNPDGDVGGPWAYTTNPRKLYDY-NH2),1.6
3,CC(=O)N[C@@H](CCCN=C(N)N)C(=O)N[C@@H](CC(N)=O)C(=O)N1CCC[C@H]1C(=O)N[C@@H](CC(=O)O)C(=O)NCC(=O)N[C@@H](CC(=O)O)C(=O)N[C@H](C(=O)NCC(=O)NCC(=O)N1CCC[C@H]1C(=O)N[C@@H](Cc1c[nH]c2ccccc12)C(=O)N[C@@H](C)C(=O)N[C@@H](Cc1ccc(O)cc1)C(=O)N[C@H](C(=O)N[C@H](C(=O)N[C@@H](CC(N)=O)C(=O)N1CCC[C@H]1C(=O)N[C@@H](CCCN=C(N)N)C(=O)N[C@@H](CCCCN)C(=O)N[C@@H](CC(C)C)C(=O)N[C@@H](Cc1ccc(O)cc1)C(=O)N[C@@H](CC(=O)O)C(=O)N[C@@H](Cc1ccc(O)cc1)C(=O)N[C@@H](CCCCNC(=O)CCN1C(=O)C=CC1=O)C(N)=O)[C@@H](C)O)[C@@H](C)O)C(C)C (Ac-RNPDGDVGGPWAYTTNPRKLYDYK(Propanoyl(3-maleimido))-NH2),0.22
